Data reported in patent US10294202B2, “Pyrrolidinones as herbicides” (FMC Corporation, priority 2013, dated 2019).

Legend:
giant foxtail = assay: Test A pre-/postemergence herbicide test; type: in vivo, Setaria faberii
Summary of the method: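 Seeds sown in loam soil/sand blend received a preemergence directed soil spray of test chemical in non-phytotoxic solvent with surfactant; postemergence plants (2–10 cm, one- to two-leaf stage) were sprayed with the same formulation. After about 10 days in greenhouse, injury was rated visually versus untreated controls, 0 (no effect) to 100 (complete control).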

sedge, umbrella = assay: Test B flooded paddy test; type: in vivo, Cyperus difformis; conditions: Flood, scale of 0 to 100 where 0 is no effect and 100 is complete control
Summary of the method: (§1)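 Paddy-water application at a 3 cm flood, young plants having two leaves. Water level maintained; greenhouse, 13–15 days; visual 0–100 control rating.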

barnyardgrass [1] = assay: Test B flooded paddy test; type: in vivo, Echinochloa crus-galli; conditions: Flood, scale of 0 to 100 where 0 is no effect and 100 is complete control
Summary of the method: as §1

ryegrass, Italian = assay: Test C pre-/postemergence herbicide test; type: in vivo, Lolium multiflorum; conditions: Preemergence; for Plant response rating, Ryegrass, Italian: 125 g ai/ha; for Plant response rating (scale of 0 to 100), Ryegrass, Italian: 250 g ai/ha
From the text: (§2) Seeds of plant species selected from blackgrass (Alopecurus myosuroides), ryegrass, Italian (Italian ryegrass, Lolium multiflorum), wheat (winter wheat, Triticum aestivum), galium (catchweed bedstraw, Galium aparine), corn (Zea mays), crabgrass, large (large crabgrass, Digitaria sanguinalis), foxtail, giant (giant foxtail, Setaria faberii), johnsongrass (Sorghum halepense), lambsquarters (Chenopodium album), morningglory (Ipomoea coccinea), nutsedge, yellow (yellow nutsedge, Cyperus esculentus), pigweed (Amaranthus retroflexus), ragweed (common ragweed, Ambrosia elatior), soybean (Glycine max), barnyardgrass (Echinochloa crus-galli), oilseed rape (Brassica napus), waterhemp (common waterhemp, Amaranthus rudis), kochia (Kochia scoparia), oat, wild (wild oat, Avena fatua), surinam grass (Brachiaria decumbens), foxtail, green (green foxtail, Setaria viridis), goosegrass (Eleusine indica), bromegrass, downy (downy bromegrass, Bromus tectorum), nightshade (eastern black nightshade, Solanum ptycanthum), cocklebur (common cocklebur, Xanthium strumarium), cupgrass, woolly (woolly cupgrass, Eriochloa villosa), bermudagrass (Cynodon dactylon), sunflower, (common oilseed sunflower, Helianthus annuus), Russian thistle (Salsola kali) and velvetleaf (Abutilon theophrasti) were planted into a blend of loam soil and sand and treated preemergence with test chemicals formulated in a non-phytotoxic solvent mixture which included a surfactant. At the same time, plants selected from these crop and weed species and also barley (winter barley, Hordeum vulgare), […]), chickweed (common chickweed, Stellaria media), deadnettle (henbit deadnettle, Lamium amplexicaule), and canarygrass (littleseed canarygrass, Phalaris minor) were planted in pots containing Redi-Earth® planting medium (Scotts Company, 14111 Scottslawn Road, Marysville, Ohio 43041) comprising spaghnum peat moss, vermiculite, wetting agent and starter nutrients and treated with postemergence applications of test chemicals formulated in the same manner. Plants ranged in height from 2 to 18 cm (1- to 4-leaf stage) for postemergence treatments. Treated plants and controls were maintained in a greenhouse for 13 to 15 days, after which time all species were compared to controls and visually evaluated. Plant response ratings, summarized in Table C, are based on a scale of 0 to 100 where 0 is no effect and 100 is complete control. A dash (-) response means no test result.

crabgrass, large = assay: Test C pre-/postemergence herbicide test; type: in vivo, Digitaria sanguinalis; conditions: Preemergence; for Plant response rating, Crabgrass, Large: 125 g ai/ha; for Plant response rating (scale of 0 to 100), Crabgrass, Large: 250 g ai/ha
From the text: as §2

johnsongrass = assay: Test C pre-/postemergence herbicide test; type: in vivo, Sorghum halepense; conditions: Preemergence; for Plant response rating, Johnsongrass: 125 g ai/ha; for Plant response rating (scale of 0 to 100), Johnsongrass: 250 g ai/ha
Summary of the method: (§3)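 Visual rating, 0 (no effect) to 100 (complete control), versus untreated controls after 13 to 15 days in the greenhouse. Pre: seeds in loam/sand, sprayed at planting. Post: 1- to 4-leaf plants (2 to 18 cm) in peat-based mix. Compounds in non-phytotoxic solvent plus surfactant.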

ragweed = assay: Test C pre-/postemergence herbicide test; type: in vivo, Ambrosia elatior; conditions: Preemergence; for Plant response rating, Ragweed: 125 g ai/ha; for Plant response rating (scale of 0 to 100), Ragweed: 250 g ai/ha
Summary of the method: as §3

barnyardgrass [2] = assay: Test C pre-/postemergence herbicide test; type: in vivo, Echinochloa crus-galli; conditions: Preemergence; for Plant response rating (scale of 0 to 100; 0 is no effect, 100 is complete control), Barnyardgrass: 250 g ai/ha
Summary of the method: as §3

waterhemp = assay: Test C pre-/postemergence herbicide test; type: in vivo, Amaranthus rudis; conditions: Preemergence; for Plant response rating, Waterhemp: 125 g ai/ha; for Plant response rating (scale of 0 to 100), Waterhemp: 250 g ai/ha
From the text: as §2

velvetleaf = assay: Test C pre-/postemergence herbicide test; type: in vivo, Abutilon theophrasti; conditions: Preemergence; for Plant response rating, Velvetleaf: 125 g ai/ha; for Plant response rating (scale of 0 to 100), Velvetleaf: 250 g ai/ha
From the text: as §2

[3] = Postemergence, 125 g ai/ha, 0 to 100 scale, 0 is no effect, 100 is complete control
[4] = Postemergence, 500 g ai/ha, 0 to 100 scale (0 no effect, 100 complete control)
[5] = Preemergence, 125 g ai/ha, 0 to 100 scale where 0 is no effect and 100 is complete control
[6] = preemergence, 500 g ai/ha, 0 to 100 scale, 0 is no effect and 100 is complete control
[7] = 31 g ai/ha, scale 0 to 100, 0 is no effect and 100 is complete control
[8] = 62 g ai/ha, scale 0 to 100 (0 no effect, 100 complete control)
[9] = scale 0 to 100 (0 no effect, 100 complete control)
[10] = 125 g ai/ha, scale 0 to 100 (0 no effect, 100 complete control)

Structure (SMILES)	Plant response rating, Foxtail, Giant (giant foxtail; [3])	Plant response rating, Foxtail, Giant (giant foxtail; [6])	Ryegrass, Italian plant response rating (ryegrass, Italian; [7])	Ryegrass, Italian plant response rating (ryegrass, Italian; [8])	Plant response rating, Ryegrass, Italian (ryegrass, Italian; [9])	Plant response rating (scale of 0 to 100), Ryegrass, Italian (ryegrass, Italian)	Crabgrass, Large plant response rating (crabgrass, large; [7])	Crabgrass, Large plant response rating (crabgrass, large; [8])	Plant response rating, Crabgrass, Large (crabgrass, large; [9])	Plant response rating (scale of 0 to 100), Crabgrass, Large (crabgrass, large)	Johnsongrass plant response rating (johnsongrass; [7])	Johnsongrass plant response rating (johnsongrass; [8])	Plant response rating, Johnsongrass (johnsongrass; [9])	Plant response rating (scale of 0 to 100), Johnsongrass (johnsongrass)	Ragweed plant response rating (ragweed; [7])	Ragweed plant response rating (ragweed; [8])	Plant response rating, Ragweed (ragweed; [9])	Plant response rating (scale of 0 to 100), Ragweed (ragweed)	Barnyardgrass plant response rating (barnyardgrass [2]; [7])	Plant response rating, Barnyardgrass (barnyardgrass [2]; [10])	other results
O=C1NCC(c2ccc(C(F)(F)F)c(F)c2)C1C(=O)Nc1ccccc1F (racemic) [Compound 246]	40	90	0	0	10	10	95	95	95	98	0	20	0	5	0	0	0	40	20	75	Plant response rating, Foxtail, Giant (giant foxtail; [4]): 80; Plant response rating, Foxtail, Giant (giant foxtail; [5]): 80; Plant response rating, Sedge, Umbrella (sedge, umbrella; 1000 g ai/ha): 20; Plant response rating, Barnyardgrass (barnyardgrass [1]; 1000 g ai/ha): 60; Plant response rating, Barnyardgrass (barnyardgrass [2]; 62 g ai/ha, scale 0 to 100): 75; Plant response rating (scale of 0 to 100; 0 is no effect, 100 is complete control), Barnyardgrass (barnyardgrass [2]): 90; Waterhemp plant response rating (waterhemp; [7]): 100; Waterhemp plant response rating (waterhemp; [8]): 98; Plant response rating, Waterhemp (waterhemp; [9]): 90; Plant response rating (scale of 0 to 100), Waterhemp (waterhemp): 90; Velvetleaf plant response rating (velvetleaf; [7]): 0; Velvetleaf plant response rating (velvetleaf; [8]): 0; Plant response rating, Velvetleaf (velvetleaf; [9]): 0; Plant response rating (scale of 0 to 100), Velvetleaf (velvetleaf): 0
O=C1NCC(c2ccc(C(F)(F)F)nc2)C1C(=O)Nc1cccc(F)c1F (racemic) [Compound 263]	80	100	0	0	0	35	100	100	100	100	5	0	0	0	0	90	80	100	75	95	Plant response rating, Foxtail, Giant (giant foxtail; [4]): 90; Plant response rating, Foxtail, Giant (giant foxtail; [5]): 90; Plant response rating, Sedge, Umbrella (sedge, umbrella; 1000 g ai/ha): 0; Plant response rating, Barnyardgrass (barnyardgrass [1]; 1000 g ai/ha): 0; Barnyardgrass plant response rating (barnyardgrass [2]; [8]): 90; Plant response rating (scale of 0 to 100; 0 is no effect, 100 is complete control), Barnyardgrass (barnyardgrass [2]): 98; Waterhemp plant response rating (waterhemp; [7]): 75; Waterhemp plant response rating (waterhemp; [8]): 80; Plant response rating, Waterhemp (waterhemp; [9]): 90; Plant response rating (scale of 0 to 100), Waterhemp (waterhemp): 100; Velvetleaf plant response rating (velvetleaf; [7]): 5; Velvetleaf plant response rating (velvetleaf; [8]): 5; Plant response rating, Velvetleaf (velvetleaf; [9]): 20; Plant response rating (scale of 0 to 100), Velvetleaf (velvetleaf): 5
O=C1NCC(c2cccc(C(F)(F)F)c2)C1C(=O)Nc1cccc(F)c1F (stereo not drawn) [Compound 241]	80	90	20	20	30	55	95	95	98	100	85	80	85	90	0	25	30	70	90	95	Plant response rating, Foxtail, Giant (giant foxtail; [4]): 90; Plant response rating, Foxtail, Giant (giant foxtail; [5]): 90; Plant response rating, Sedge, Umbrella (sedge, umbrella; 250 g ai/ha): 0; Plant response rating, Sedge, Umbrella (sedge, umbrella; 1000 g ai/ha): 20; Plant response rating, Barnyardgrass (barnyardgrass [1]; 250 g ai/ha): 55; Plant response rating, Barnyardgrass (barnyardgrass [1]; 1000 g ai/ha): 75; Plant response rating, Barnyardgrass (barnyardgrass [2]; 62 g ai/ha, scale 0 to 100): 95; Plant response rating (scale of 0 to 100; 0 is no effect, 100 is complete control), Barnyardgrass (barnyardgrass [2]): 95; Waterhemp plant response rating (waterhemp; [7]): 25; Waterhemp plant response rating (waterhemp; [8]): 40; Plant response rating, Waterhemp (waterhemp; [9]): 45; Plant response rating (scale of 0 to 100), Waterhemp (waterhemp): 60; Velvetleaf plant response rating (velvetleaf; [7]): 0; Velvetleaf plant response rating (velvetleaf; [8]): 0; Plant response rating, Velvetleaf (velvetleaf; [9]): 5; Plant response rating (scale of 0 to 100), Velvetleaf (velvetleaf): 40
O=C1NCC(c2ccc(C(F)(F)F)cc2)C1C(=O)Nc1ccccc1Cl (stereo not drawn) [Compound 233]	90	90	0	0	30	40	90	90	90	90	0	0	20	45	10	40	40	85	80	85	Plant response rating, Foxtail, Giant (giant foxtail; 125 g ai/ha, visual rating, 0 to 100 scale, 0 no effect, 100 complete control, approximately 10 days, preemergence): 90; Foxtail, Giant plant response rating (0 to 100 scale, 0 is no effect, 100 is complete control) (giant foxtail; Postemergence, 500 g ai/ha): 90; Plant response rating, Sedge, Umbrella (sedge, umbrella; 500 g ai/ha): 0; Plant response rating, Barnyardgrass (barnyardgrass [1]; 500 g ai/ha): 60; Plant response rating, Barnyardgrass (barnyardgrass [2]; 62 g ai/ha, scale 0 to 100): 75; Plant response rating (scale of 0 to 100; 0 is no effect, 100 is complete control), Barnyardgrass (barnyardgrass [2]): 90; Waterhemp plant response rating (waterhemp; [7]): 95; Waterhemp plant response rating (waterhemp; [8]): 80; Plant response rating, Waterhemp (waterhemp; [9]): 85; Plant response rating (scale of 0 to 100), Waterhemp (waterhemp): 95; Velvetleaf plant response rating (velvetleaf; [7]): 15; Velvetleaf plant response rating (velvetleaf; [8]): 25; Plant response rating, Velvetleaf (velvetleaf; [9]): 45; Plant response rating (scale of 0 to 100), Velvetleaf (velvetleaf): 45
